Data reported in ChEMBL document CHEMBL1201862, “PubChem BioAssay data set” (2004).
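Protocol summary: plate cells (96-well), add compound at 5 concentrations, incubate 48 h, interpolate endpoints linearly. GI50 is the concentration that inhibits growth by half.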 Active and inactive are the calls of the source. Rule as the data show it: active = GI50 up to about 1.1 µM and inactive = higher.

Key:
Assay in all cases: NCI anticancer screen, dose series, 48 h
786-0 = tested on: 786-0
CAKI-1 = tested on: CAKI-1
DU-145 = tested on: DU-145
HCT-116 = tested on: HCT-116
Hs-578T = tested on: Hs-578T
IGROV-1 = tested on: IGROV-1
LOX IMVI = tested on: LOX IMVI
M14 = tested on: M14
MDA-MB-435 = tested on: MDA-MB-435
Malme-3M = tested on: Malme-3M
NCI-H522 = tested on: NCI-H522
OVCAR-3 = tested on: OVCAR-3
PC-3 = tested on: PC-3
RXF 393 = tested on: RXF 393
SF-295 = tested on: SF-295
SNB-19 = tested on: SNB-19
T47D = tested on: T47D
UACC-62 = tested on: UACC-62
HCT-15 = tested on: HCT-15
OVCAR-8 = tested on: OVCAR-8

SMILES	GI50 (786-0)	GI50 (CAKI-1)	GI50 (DU-145)	GI50 (HCT-116)	GI50 (Hs-578T)	GI50 (IGROV-1)	GI50 (LOX IMVI)	GI50 (M14)	GI50 (MDA-MB-435)	GI50 (Malme-3M)	GI50 (NCI-H522)	GI50 (OVCAR-3)	GI50 (PC-3)	GI50 (RXF 393)	GI50 (SF-295)	GI50 (SNB-19)	GI50 (T47D)	GI50 (UACC-62)	GI50 (HCT-15)	GI50 (OVCAR-8)
CN1CCN(C2=CC(=O)c3c(O)ccc(O)c3C2=O)CC1	1.95 µM (inactive)	1.6 µM (inactive)	1.75 µM (inactive)	0.208 µM (active)	2.03 µM (inactive)	1.64 µM (inactive)	0.547 µM (active)	0.647 µM (active)	0.188 µM (active)	0.228 µM (active)	1.71 µM (inactive)	0.23 µM (active)	0.412 µM (active)	1.57 µM (inactive)	1.69 µM (inactive)	1.69 µM (inactive)	0.69 µM (active)	1.65 µM (inactive)	–	–
Cc1nc2cccc(F)c2c(=O)n1-c1nnc(C(F)(F)F)s1	> 10 µM (inactive)	> 10 µM (inactive)	> 10 µM (inactive)	> 10 µM (inactive)	> 10 µM (inactive)	> 10 µM (inactive)	> 10 µM (inactive)	> 10 µM (inactive)	> 10 µM (inactive)	–	> 10 µM (inactive)	> 10 µM (inactive)	> 10 µM (inactive)	> 10 µM (inactive)	> 10 µM (inactive)	> 10 µM (inactive)	> 10 µM (inactive)	> 10 µM (inactive)	> 10 µM	> 10 µM (inactive)
COc1ccc(/C=c2/[nH]c(=O)/c(=C\c3ccc(OCc4ccccc4)cn3)[nH]c2=O)cc1	49.9 µM (inactive)	> 100 µM (inactive)	> 100 µM (inactive)	48 µM (inactive)	57.5 µM (inactive)	–	82.4 µM (inactive)	62.8 µM (inactive)	19.9 µM (inactive)	> 100 µM (inactive)	71.4 µM (inactive)	> 100 µM (inactive)	> 100 µM (inactive)	23.2 µM (inactive)	40.6 µM (inactive)	34.4 µM (inactive)	> 100 µM (inactive)	> 100 µM (inactive)	38.6 µM	98.2 µM (inactive)
CCN(CC)CCNC(=O)c1cc2cc(NC(=O)c3cc4cc(NC(=O)c5cc6cc([N+](=O)[O-])ccc6[nH]5)ccc4[nH]3)ccc2[nH]1	> 100 µM (inactive)	> 100 µM (inactive)	> 100 µM (inactive)	–	> 100 µM (inactive)	> 100 µM (inactive)	> 100 µM (inactive)	> 100 µM (inactive)	> 100 µM (inactive)	> 100 µM (inactive)	> 100 µM (inactive)	> 100 µM (inactive)	> 100 µM (inactive)	> 100 µM (inactive)	> 100 µM (inactive)	> 100 µM (inactive)	> 100 µM (inactive)	> 100 µM (inactive)	> 100 µM	> 100 µM (inactive)
ClCCN(CCCl)c1ccc(CNCCCNCc2ccc(N(CCCl)CCCl)cc2)cc1	2 µM (inactive)	6.64 µM (inactive)	2.37 µM (inactive)	4.13 µM (inactive)	3.13 µM (inactive)	1.92 µM (inactive)	1.65 µM (inactive)	4.7 µM (inactive)	2.69 µM (inactive)	2.44 µM (inactive)	2.13 µM (inactive)	2.69 µM (inactive)	5.92 µM (inactive)	1.59 µM (inactive)	–	1.87 µM (inactive)	2.04 µM (inactive)	1.97 µM (inactive)	2.47 µM	2.38 µM (inactive)
Cc1ccc(/N=N/C(=N/NC(=O)c2cc(Cl)ccc2C(=O)c2ccccc2)c2ccc(N(CCC#N)CCC#N)cc2C)cc1	10.4 µM (inactive)	20.4 µM (inactive)	11.5 µM (inactive)	9.64 µM (inactive)	27.2 µM (inactive)	7.59 µM (inactive)	–	11.8 µM (inactive)	18.7 µM (inactive)	15.7 µM (inactive)	4.81 µM (inactive)	3.01 µM (inactive)	7.24 µM (inactive)	0.0957 µM (active)	14.9 µM (inactive)	33.2 µM (inactive)	3.81 µM (inactive)	12.9 µM (inactive)	7.55 µM	11 µM (inactive)
O=c1onc2c3ccccc3ncn12	> 100 µM (inactive)	> 100 µM (inactive)	> 100 µM (inactive)	> 100 µM (inactive)	> 100 µM (inactive)	> 100 µM (inactive)	> 100 µM (inactive)	> 100 µM (inactive)	> 100 µM (inactive)	–	> 100 µM (inactive)	> 100 µM (inactive)	> 100 µM (inactive)	> 100 µM (inactive)	> 100 µM (inactive)	> 100 µM (inactive)	> 100 µM (inactive)	> 100 µM (inactive)	> 100 µM	> 100 µM (inactive)
Cc1c2c(C(N)=O)nccc2c(C)c2c1c1ccccc1n2Cc1ccccc1	3.86 µM (inactive)	17.6 µM (inactive)	27.7 µM (inactive)	10 µM (inactive)	6.07 µM (inactive)	16.2 µM (inactive)	4.41 µM (inactive)	56.2 µM (inactive)	33.9 µM (inactive)	–	23.7 µM (inactive)	3.97 µM (inactive)	13 µM (inactive)	11.9 µM (inactive)	10.8 µM (inactive)	14.8 µM (inactive)	29.2 µM (inactive)	60.4 µM (inactive)	16 µM	10.6 µM (inactive)
